One block for each molecule: values may come before it.
Columns and labels:
[1] = biological target: T1, Monoacylglycerol lipase (MAGL) (Mus musculus, UniProt O35678); experiment: inhibition of 3H-2-OG hydrolysis in MAGL-transfected COS-7 lysate; format: biochemical
T1 sequence (O35678 1-303): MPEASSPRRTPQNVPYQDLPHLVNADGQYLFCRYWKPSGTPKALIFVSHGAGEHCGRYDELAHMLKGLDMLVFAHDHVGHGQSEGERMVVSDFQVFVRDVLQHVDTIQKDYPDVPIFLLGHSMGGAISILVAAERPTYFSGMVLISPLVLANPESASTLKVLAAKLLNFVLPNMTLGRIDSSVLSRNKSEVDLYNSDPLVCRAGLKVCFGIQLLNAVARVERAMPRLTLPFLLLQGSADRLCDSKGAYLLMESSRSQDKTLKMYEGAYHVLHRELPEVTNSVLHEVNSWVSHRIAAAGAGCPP

[2] = substrate: CCCCC/C=C\C/C=C\C/C=C\C/C=C\CCCC(=O)SCC(O)CO; format: biochemical, Mus musculus; settings: hydrolysis abolished by mutation of catalytic serine […] to alanine

IC50 [1]: 0.0457 µM
Molecule: CCCCC/C=C\C/C=C\C/C=C\C/C=C\CCCCN1C(=O)C=CC1=O [NAM, N-arachidonyl maleimide]

B1: Monoacylglycerol lipase (MAGL) (Mus musculus) (protein)
chain: T1 sequence (O35678 1-303)
Km [2]: 67.9 µM

Source: publication PMC2844520 (The AAPS journal, 2010)
